Values of other authors as cited in patent publication US5855881A, “Mammalian alcohol dehydrogenase and aldehyde dehydrogenase production in plants” (priority 1996, dated 1999).

Columns and labels:
[1] = molecular target: T1, human ALDH4 (glutamic γ semialdehyde dehydrogenase, GSDH) (Homo sapiens, UniProt P30038); details: read-out: Km toward acetaldehyde
T1 construct: at least five ALDHs that have been purified and characterized from human liver or stomach; host or cells: purified from human liver or stomach (Yin et al. 1993)
T1 sequence (P30038 25-563): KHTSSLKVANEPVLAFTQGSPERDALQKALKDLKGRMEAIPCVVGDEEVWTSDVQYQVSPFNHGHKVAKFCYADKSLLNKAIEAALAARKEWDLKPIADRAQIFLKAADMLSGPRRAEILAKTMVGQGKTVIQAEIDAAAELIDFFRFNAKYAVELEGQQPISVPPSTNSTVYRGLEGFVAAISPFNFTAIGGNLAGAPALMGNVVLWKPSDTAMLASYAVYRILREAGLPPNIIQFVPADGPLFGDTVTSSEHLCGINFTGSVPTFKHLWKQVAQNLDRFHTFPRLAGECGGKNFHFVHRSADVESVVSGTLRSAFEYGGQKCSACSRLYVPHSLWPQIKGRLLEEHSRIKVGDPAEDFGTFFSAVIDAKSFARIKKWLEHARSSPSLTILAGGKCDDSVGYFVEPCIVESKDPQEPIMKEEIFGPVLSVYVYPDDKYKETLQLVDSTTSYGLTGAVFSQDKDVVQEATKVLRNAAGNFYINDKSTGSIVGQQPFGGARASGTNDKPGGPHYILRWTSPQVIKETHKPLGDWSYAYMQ

[2] = molecular target: T2, human ALDH3 (aldehyde dehydrogenase) (Homo sapiens, UniProt P30838); details: read-out: Km toward acetaldehyde
T2 construct: at least five ALDHs that have been purified and characterized from human liver or stomach; host or cells: purified from human liver or stomach (Yin et al. 1993)
T2 sequence (P30838 1-453): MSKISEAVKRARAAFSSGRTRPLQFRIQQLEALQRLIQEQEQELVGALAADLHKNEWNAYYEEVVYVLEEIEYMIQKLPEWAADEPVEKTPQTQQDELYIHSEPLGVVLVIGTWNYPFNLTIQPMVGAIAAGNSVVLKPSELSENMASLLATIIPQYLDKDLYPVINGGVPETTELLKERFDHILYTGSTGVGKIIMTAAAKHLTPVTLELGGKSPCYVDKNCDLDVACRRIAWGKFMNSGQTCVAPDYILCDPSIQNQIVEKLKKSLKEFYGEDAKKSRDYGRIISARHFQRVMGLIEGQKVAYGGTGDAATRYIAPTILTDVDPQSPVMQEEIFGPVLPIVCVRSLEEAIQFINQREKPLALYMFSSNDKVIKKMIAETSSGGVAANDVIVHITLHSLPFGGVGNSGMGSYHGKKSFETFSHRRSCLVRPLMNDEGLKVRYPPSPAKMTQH

[3] = molecular target: T3, human cytosolic ALDH1 (aldehyde dehydrogenase) (Homo sapiens, UniProt P00352); details: read-out: Km toward acetaldehyde
T3 construct: at least five ALDHs that have been purified and characterized from human liver or stomach; host or cells: purified from human liver or stomach (Yin et al. 1993)
T3 sequence (P00352 1-501): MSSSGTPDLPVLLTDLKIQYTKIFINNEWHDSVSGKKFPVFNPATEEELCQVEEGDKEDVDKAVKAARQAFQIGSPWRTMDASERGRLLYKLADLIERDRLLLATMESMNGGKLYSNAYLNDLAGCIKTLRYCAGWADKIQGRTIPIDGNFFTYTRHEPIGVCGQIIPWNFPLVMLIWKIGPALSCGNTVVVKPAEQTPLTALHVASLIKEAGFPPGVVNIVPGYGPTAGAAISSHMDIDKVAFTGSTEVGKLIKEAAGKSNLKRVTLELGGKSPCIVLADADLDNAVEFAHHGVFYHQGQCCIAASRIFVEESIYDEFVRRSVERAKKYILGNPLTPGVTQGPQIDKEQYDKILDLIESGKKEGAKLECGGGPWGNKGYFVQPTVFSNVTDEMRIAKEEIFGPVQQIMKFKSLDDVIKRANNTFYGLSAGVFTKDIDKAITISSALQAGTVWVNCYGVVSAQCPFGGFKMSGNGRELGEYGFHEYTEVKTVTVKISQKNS

[4] = molecular target: T4, human γ-aminobutyraldehyde dehydrogenase (GABALDH) (Homo sapiens, UniProt P49189); details: read-out: Km toward acetaldehyde
T4 construct: γ-aminobutyraldehyde dehydrogenase has been purified from liver; host or cells: purified from human liver (Yin et al. 1993)

[5] = molecular target: T5, human mitochondrial ALDH2 (aldehyde dehydrogenase) (Homo sapiens, UniProt P05091); details: read-out: Km toward acetaldehyde
T5 construct: at least five ALDHs that have been purified and characterized from human liver or stomach; host or cells: purified from human liver or stomach (Yin et al. 1993)
T5 sequence (P05091 18-517): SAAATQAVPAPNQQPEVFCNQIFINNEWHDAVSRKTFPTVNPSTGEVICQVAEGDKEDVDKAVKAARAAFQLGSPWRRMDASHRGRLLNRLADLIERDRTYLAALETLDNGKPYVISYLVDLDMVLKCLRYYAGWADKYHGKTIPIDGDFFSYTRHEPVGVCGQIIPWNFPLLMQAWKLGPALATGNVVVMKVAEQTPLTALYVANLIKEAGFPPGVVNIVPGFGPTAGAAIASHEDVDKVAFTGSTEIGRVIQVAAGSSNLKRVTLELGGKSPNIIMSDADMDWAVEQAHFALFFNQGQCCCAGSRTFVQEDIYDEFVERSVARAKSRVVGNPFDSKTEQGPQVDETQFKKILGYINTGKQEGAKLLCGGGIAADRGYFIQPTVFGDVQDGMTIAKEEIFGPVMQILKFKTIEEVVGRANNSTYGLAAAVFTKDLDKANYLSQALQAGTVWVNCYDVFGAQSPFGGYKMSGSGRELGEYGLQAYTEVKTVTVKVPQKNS

[6] = molecular target: human class IV σ-ADH (stomach alcohol dehydrogenase) (Homo sapiens, UniProt P40394)
Sequence of human class IV σ-ADH (stomach alcohol dehydrogenase) (P40394 14-386 limits assumed): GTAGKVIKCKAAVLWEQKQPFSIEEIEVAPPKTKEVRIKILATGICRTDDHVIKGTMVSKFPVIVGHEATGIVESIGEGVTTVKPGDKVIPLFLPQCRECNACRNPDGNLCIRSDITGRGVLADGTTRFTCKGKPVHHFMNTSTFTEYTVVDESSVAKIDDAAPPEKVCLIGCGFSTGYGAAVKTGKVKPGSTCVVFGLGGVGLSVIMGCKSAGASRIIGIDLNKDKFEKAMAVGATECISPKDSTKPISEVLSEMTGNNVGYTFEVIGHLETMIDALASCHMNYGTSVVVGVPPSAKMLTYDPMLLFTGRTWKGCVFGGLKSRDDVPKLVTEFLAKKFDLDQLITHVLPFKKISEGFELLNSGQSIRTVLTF

T4 sequence (P49189 whole entry): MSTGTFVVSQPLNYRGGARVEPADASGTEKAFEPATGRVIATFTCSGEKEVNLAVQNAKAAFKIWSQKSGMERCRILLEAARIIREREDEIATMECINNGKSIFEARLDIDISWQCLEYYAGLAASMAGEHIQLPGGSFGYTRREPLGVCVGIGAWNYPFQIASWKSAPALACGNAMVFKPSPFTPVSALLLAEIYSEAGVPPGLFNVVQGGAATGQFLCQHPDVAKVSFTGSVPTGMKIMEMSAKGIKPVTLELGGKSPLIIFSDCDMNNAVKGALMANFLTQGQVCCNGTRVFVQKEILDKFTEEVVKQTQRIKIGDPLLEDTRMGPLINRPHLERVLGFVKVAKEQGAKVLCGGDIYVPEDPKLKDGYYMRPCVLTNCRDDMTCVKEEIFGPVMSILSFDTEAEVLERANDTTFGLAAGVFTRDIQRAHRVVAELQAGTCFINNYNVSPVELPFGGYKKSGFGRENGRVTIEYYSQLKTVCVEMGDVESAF

Row | SMILES | Km [1] [µM] | Km [2] [µM] | Km [3] [µM] | Km [4] [µM] | Km [5] [µM] | kcat for ethanol oxidation ([6]; enzyme isolated from human stomach tissue) [s⁻¹] | kcat value for ethanol ([6]; pH 7.5) | Km ([6]; read-out: Km for ethanol, enzyme isolated from human stomach tissue) [µM]
1 | CC=O [acetaldehyde] | 5000 | 83000 | 30 | 50 | 3 |  |  | 
2 | CCO [ethanol] |  |  |  |  |  | 16.67 to 25 | about 1000 | ~41000
